ChEMBL document CHEMBL5584281, “Toward Precision Oncology: The Role of TPD in Targeting CDK2 and Beyond” (ACS Med Chem Lett, 2024)

Molecular target: Cyclin-dependent kinase 2 (Homo sapiens, UniProt P24941)
Experiment: Inhibition of CDK2 in human OVCAR-3 cells assessed as inhibition of retinoblastoma protein phosphorylation at S807/811 residues measured after 24 hrs by TR-FRET assay
Format: cell-based

SMILES	IC50
Cn1nc(N2CCC(=O)NC2=O)c2ccc(C3CCN(CC4CCN(S(=O)(=O)N5CCC(Nc6ncc(C(F)(F)F)c(-c7cnn(CC(F)(F)F)c7)n6)CC5)CC4)CC3)cc21	< 100 nM
O=C1CCC(N2C(=O)c3cc(F)c(N4CCN(Cc5cccc(S(=O)(=O)N6CCC(Nc7ncc(Cl)c(-c8cnn(CC(F)(F)F)c8)n7)CC6)c5)CC4)cc3C2=O)C(=O)N1 (stereo not drawn)	< 100 nM
O=C1CCC(N2Cc3cc(C4CN(Cc5cccc(S(=O)(=O)N6CCC(Nc7ncc(C(F)(F)F)c(-c8cnn(CC(F)(F)F)c8)n7)CC6)c5)C4)ccc3C2=O)C(=O)N1 (stereo not drawn)	< 100 nM
O=C1CCC(c2ccc(N3CCN(Cc4cccc(S(=O)(=O)N5CCC(Nc6ncc(C(F)(F)F)c(-c7cnn(CC(F)(F)F)c7)n6)CC5)c4)CC3)cc2)C(=O)N1 (stereo not drawn)	< 100 nM
Cn1nc(N2CCC(=O)NC2=O)c2cc(C3CCN(Cc4cccc(S(=O)(=O)N5CCC(Nc6ncc(C(F)(F)F)c(-c7cnn(CC(F)(F)F)c7)n6)CC5)c4)CC3)ccc21	< 100 nM
O=C1CCC(N2C(=O)c3cc(F)c(N4CC5(CN(Cc6cccc(S(=O)(=O)N7CCC(Nc8ncc(C(F)(F)F)c(-c9cnn(CC(F)(F)F)c9)n8)CC7)c6)C5)C4)cc3C2=O)C(=O)N1 (stereo not drawn)	< 100 nM
Cn1nc(N2CCC(=O)NC2=O)c2ccc(C3CCN(Cc4cccc(S(=O)(=O)N5CCC(Nc6ncc(C(F)(F)F)c(-c7cnn(-c8ccccc8F)c7)n6)CC5)c4)CC3)cc21	≤ 100 nM
O=C1CCC(N2Cc3ccc(N4CCC5(CCN(Cc6cccc(S(=O)(=O)N7CCC(Nc8ncc(C(F)(F)F)c(-c9cnn(CC(F)(F)F)c9)n8)CC7)c6)CC5)CC4)cc3C2=O)C(=O)N1 (stereo not drawn)	< 100 nM
